Experimental data reported in ChEMBL document CHEMBL1201862, “PubChem BioAssay data set” (2004).
Active and inactive are the calls of the source.

What was measured:
Cytochrome P450 2C19 = Cytochrome P450 2C19 (Homo sapiens, UniProt P33261); assay: Cytochrome panel assay with activity outcomes. Panel member name: p450-cyp2c19 Compounds with AC50 equal or less than 10 uM are considered active; assay type: functional
Cytochrome P450 1A2 = target: T1, Cytochrome P450 1A2 (Homo sapiens, UniProt P05177);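 further: PubChem cytochrome P450 panel assay, CYP1A2 panel member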
T1 sequence (P05177 whole entry): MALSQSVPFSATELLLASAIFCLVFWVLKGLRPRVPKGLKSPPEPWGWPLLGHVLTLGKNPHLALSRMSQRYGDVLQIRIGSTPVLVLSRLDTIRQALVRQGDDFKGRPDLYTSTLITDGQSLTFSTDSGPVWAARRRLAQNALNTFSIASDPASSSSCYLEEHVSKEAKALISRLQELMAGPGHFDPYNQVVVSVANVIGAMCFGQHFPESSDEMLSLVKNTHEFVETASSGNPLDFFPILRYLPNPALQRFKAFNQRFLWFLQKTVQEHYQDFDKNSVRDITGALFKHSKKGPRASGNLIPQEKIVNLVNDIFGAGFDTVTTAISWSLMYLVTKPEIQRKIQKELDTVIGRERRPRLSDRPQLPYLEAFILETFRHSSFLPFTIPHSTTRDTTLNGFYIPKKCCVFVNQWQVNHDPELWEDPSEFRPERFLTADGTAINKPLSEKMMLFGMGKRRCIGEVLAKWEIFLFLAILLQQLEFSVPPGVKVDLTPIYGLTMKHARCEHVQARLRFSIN

Cytochrome P450 2C9 = Cytochrome P450 2C9 (Homo sapiens, UniProt P11712)
Aminopeptidase N = target: T2, Aminopeptidase N (Plasmodium falciparum FcB1/Columbia, UniProt O96935); assay: malaria alanyl aminopeptidase activity blockers – biochemical, fluorogenic H-Leu-NHMec substrate, 1536-well (AID 1445); parameters: species or system Plasmodium falciparum 3D7, 3D7
T2 sequence (O96935 whole entry): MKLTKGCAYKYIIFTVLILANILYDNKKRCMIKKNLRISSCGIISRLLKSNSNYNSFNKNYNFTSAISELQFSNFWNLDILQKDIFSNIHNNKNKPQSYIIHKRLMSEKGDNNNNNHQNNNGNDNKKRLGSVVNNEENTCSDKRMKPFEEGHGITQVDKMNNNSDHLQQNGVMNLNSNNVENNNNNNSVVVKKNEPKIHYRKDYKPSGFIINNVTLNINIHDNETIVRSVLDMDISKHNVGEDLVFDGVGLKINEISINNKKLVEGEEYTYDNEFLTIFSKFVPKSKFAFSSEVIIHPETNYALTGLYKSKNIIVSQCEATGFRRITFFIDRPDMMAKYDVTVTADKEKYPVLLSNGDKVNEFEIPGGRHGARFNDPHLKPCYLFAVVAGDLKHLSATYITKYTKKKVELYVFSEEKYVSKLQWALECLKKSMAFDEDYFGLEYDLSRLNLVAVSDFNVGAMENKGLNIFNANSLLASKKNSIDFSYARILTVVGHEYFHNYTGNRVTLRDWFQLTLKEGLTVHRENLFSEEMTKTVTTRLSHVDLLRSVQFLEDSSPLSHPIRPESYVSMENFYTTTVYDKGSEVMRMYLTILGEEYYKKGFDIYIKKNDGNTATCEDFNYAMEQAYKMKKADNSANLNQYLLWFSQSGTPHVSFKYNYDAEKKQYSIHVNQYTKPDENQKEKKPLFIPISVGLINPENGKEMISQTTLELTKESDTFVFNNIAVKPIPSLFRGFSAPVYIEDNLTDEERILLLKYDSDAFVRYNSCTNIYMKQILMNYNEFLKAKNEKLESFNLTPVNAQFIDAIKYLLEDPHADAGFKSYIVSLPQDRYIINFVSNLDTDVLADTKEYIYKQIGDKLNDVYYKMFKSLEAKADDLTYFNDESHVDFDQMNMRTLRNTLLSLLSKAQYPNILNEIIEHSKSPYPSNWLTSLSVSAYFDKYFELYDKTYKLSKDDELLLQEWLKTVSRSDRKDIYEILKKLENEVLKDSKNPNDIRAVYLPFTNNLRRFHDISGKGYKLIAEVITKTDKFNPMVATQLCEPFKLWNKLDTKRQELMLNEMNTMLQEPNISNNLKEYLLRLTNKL

[1] = Luminescence Cell-Based Dose Retest to Confirm Inhibitors of Cancer Stem Cells. [Related pubchem assays (depositor defined):AID2717, AID2721]; assay type: functional; settings: Homo sapiens
[2] = target: Voltage-dependent T-type calcium channel subunit alpha-1H (Homo sapiens, UniProt O95180); assay type: functional;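 further: channel activity triggered by adding a high calcium stimulation buffer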
Leucine aminopeptidase = target: T3, Leucine aminopeptidase (Plasmodium falciparum 3D7, UniProt Q8IL11); assay: P. falciparum M17LAP inhibitors, primary screen, biochemical, fluorogenic H-Leu-NHMec substrate, 1536-well (AID 1619); assay type: functional
T3 sequence (Q8IL11 whole entry): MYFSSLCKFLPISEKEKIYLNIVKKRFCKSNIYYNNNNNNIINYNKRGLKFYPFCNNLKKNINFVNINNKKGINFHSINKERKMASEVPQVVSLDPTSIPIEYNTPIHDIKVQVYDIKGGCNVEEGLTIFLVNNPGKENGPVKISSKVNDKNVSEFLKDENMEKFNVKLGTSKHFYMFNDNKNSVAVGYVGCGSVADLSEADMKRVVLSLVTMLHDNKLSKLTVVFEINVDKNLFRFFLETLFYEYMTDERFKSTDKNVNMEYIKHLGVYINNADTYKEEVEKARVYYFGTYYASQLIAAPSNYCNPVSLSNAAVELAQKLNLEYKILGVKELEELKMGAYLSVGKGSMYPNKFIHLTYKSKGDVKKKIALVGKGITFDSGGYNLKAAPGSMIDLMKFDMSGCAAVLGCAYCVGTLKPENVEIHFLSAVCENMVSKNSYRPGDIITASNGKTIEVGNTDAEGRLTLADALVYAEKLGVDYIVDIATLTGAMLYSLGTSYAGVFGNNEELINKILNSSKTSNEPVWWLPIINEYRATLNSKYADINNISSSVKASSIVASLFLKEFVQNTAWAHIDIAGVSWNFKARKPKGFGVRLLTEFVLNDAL

Large T antigen = Large T antigen (Simian virus 40, UniProt P03070); assay type: functional, Betapolyomavirus macacae;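 further: Confirmatory-stage PubChem screen for compounds that inhibit SV40 T antigen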
[3] = THP-1 cell cytotoxicity, dose response, cytotoxicity control for non-replicating M. tuberculosis project (AID 489025); assay type: functional
[4] = HepG2 cell cytotoxicity, dose response, cytotoxicity control for non-replicating M. tuberculosis project (AID 489018); assay type: functional; settings: Mycobacterium tuberculosis
[5] = Vero E6 cell cytotoxicity, dose response, cytotoxicity control for non-replicating M. tuberculosis project, secondary assay (AID 492998); assay type: functional, VeroE6; settings: Vero C1008

Chain of Cytochrome P450 2C9 (P11712 whole entry): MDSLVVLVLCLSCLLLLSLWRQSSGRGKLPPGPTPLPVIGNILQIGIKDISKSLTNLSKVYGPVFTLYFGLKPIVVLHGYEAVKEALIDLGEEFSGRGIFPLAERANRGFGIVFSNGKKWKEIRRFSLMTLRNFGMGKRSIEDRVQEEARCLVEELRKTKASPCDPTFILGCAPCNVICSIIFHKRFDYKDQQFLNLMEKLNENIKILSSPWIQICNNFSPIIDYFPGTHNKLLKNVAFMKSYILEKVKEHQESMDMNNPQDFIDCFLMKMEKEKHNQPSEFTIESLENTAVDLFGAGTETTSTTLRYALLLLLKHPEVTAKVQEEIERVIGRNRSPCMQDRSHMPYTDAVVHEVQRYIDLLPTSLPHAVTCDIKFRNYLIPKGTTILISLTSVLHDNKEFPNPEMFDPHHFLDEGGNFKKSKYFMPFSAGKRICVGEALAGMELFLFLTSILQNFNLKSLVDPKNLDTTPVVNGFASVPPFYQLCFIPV
Chain of Voltage-dependent T-type calcium channel subunit alpha-1H (O95180 whole entry): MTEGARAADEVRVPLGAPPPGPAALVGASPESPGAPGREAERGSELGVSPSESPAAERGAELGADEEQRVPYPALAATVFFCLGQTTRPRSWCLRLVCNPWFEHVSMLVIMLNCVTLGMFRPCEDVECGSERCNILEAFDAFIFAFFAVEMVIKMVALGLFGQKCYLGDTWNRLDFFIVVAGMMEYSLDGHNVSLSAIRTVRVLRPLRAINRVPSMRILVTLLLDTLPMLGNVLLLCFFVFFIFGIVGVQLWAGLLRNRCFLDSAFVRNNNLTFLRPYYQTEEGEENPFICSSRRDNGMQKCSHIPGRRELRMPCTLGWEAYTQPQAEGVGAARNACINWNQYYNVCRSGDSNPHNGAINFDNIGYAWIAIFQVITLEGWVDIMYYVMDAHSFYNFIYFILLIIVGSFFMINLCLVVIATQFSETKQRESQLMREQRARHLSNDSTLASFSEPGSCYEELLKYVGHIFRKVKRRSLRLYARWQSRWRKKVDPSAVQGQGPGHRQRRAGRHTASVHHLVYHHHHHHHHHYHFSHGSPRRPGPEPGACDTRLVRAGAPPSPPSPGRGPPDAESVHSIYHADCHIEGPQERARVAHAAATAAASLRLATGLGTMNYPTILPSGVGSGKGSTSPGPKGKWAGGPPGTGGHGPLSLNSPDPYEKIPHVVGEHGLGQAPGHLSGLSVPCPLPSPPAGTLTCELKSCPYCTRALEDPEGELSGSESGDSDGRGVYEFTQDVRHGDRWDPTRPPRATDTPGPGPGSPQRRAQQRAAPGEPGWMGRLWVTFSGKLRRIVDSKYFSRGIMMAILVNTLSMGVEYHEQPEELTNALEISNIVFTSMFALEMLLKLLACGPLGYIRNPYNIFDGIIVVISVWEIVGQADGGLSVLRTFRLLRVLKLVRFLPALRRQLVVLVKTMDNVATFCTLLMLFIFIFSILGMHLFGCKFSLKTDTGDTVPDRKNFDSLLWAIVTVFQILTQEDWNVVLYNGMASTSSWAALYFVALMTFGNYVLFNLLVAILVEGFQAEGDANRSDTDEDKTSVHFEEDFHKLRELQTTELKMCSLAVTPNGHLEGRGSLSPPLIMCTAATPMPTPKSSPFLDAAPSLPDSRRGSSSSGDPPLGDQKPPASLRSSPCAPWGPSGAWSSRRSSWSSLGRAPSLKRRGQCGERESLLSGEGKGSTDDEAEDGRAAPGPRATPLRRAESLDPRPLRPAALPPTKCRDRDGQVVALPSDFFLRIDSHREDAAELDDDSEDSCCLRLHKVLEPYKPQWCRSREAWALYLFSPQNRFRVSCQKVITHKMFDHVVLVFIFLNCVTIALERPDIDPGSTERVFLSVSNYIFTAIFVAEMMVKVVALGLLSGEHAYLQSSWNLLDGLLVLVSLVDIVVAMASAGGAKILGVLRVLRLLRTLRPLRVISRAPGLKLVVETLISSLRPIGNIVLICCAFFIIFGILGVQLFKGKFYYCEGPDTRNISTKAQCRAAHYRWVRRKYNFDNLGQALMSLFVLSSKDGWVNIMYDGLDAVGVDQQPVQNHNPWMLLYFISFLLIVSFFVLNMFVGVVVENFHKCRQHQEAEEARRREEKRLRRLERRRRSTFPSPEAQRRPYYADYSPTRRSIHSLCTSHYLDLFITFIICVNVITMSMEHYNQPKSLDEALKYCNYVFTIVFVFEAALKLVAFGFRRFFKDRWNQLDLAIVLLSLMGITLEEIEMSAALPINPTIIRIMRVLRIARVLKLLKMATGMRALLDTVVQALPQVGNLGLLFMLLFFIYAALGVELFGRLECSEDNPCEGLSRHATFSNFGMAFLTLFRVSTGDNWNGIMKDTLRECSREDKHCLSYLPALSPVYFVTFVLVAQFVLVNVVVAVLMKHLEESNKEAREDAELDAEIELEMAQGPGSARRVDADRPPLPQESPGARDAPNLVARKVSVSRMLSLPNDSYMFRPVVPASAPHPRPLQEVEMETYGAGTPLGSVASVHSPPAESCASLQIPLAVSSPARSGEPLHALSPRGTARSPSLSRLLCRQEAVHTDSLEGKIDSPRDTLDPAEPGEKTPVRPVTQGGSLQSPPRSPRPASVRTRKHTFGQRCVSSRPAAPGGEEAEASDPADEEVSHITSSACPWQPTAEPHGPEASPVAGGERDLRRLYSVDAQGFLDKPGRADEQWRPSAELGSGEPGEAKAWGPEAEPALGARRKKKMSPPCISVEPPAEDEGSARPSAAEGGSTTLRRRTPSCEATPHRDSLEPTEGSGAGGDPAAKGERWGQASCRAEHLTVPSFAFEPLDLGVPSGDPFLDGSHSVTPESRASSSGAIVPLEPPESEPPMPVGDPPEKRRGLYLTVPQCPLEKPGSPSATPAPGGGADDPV
Chain of Cytochrome P450 2C19 (P33261 whole entry): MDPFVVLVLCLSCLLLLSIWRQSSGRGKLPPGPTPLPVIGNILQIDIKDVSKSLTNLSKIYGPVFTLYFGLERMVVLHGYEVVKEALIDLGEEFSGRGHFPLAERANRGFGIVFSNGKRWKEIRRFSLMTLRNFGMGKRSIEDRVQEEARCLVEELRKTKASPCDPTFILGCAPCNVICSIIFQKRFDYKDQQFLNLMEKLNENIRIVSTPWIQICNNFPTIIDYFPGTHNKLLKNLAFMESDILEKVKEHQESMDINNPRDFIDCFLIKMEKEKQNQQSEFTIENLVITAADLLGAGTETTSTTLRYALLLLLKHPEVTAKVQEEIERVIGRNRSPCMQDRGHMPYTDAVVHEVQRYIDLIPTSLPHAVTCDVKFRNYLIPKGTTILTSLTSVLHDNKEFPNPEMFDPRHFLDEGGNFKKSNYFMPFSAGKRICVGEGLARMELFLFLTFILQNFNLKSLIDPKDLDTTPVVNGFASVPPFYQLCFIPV
Chain of Large T antigen (P03070 whole entry): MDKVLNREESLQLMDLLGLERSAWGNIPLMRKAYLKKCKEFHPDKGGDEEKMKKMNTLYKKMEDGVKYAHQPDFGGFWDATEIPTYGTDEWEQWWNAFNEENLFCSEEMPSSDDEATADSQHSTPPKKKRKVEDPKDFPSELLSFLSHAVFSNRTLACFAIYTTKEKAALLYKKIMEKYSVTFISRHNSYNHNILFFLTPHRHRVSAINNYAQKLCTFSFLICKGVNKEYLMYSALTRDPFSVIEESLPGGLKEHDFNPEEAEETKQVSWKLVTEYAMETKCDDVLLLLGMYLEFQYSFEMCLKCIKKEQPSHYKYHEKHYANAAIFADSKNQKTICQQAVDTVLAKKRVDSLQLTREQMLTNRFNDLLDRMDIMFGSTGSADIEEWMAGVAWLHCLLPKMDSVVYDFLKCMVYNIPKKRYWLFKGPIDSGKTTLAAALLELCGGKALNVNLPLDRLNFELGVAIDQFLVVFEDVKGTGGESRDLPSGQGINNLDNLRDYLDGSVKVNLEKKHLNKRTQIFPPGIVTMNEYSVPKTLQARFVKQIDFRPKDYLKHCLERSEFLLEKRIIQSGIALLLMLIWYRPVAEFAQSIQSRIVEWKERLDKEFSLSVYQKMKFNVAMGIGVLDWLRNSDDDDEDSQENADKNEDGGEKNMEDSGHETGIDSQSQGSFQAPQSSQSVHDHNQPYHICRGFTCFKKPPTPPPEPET

## Nc1nc(S)nc(O)c1/N=N\c1c(Br)cc(S(N)(=O)=O)cc1Br
Cytochrome P450 2C19
  AC50: inconclusive
Cytochrome P450 1A2
  AC50: 3.16 µM (inconclusive)
Cytochrome P450 2C9
  AC50: inconclusive

## CC(C)NS(=O)(=O)c1ccc(CCC(=O)NCc2ccc3c(c2)OCO3)cc1
Aminopeptidase N
  IC50: 33.6 µM (active)

## Cn1c(Oc2ccccc2)c(C=O)c2ccccc21
Cytochrome P450 2C9
  AC50: inconclusive

## CCC1=NN2C(=N)/C(=C/c3c(C)nn(-c4ccccc4)c3Cl)C(=O)N=C2S1
Aminopeptidase N
  IC50: 46.1 µM (active)
[1]
  AC50: 78.8 µM (active)

## CC(Sc1nnnn1-c1ccccc1)C(=O)Nc1ccc(Cl)cn1 (configuration not stated)
[2]
  EC50: 6.14 µM (active)

## O=S(=O)(c1ccc(Oc2ccc(Cl)cc2)c(S(=O)(=O)N2CCCCC2)c1)N1CCCCC1
[2]
  EC50: 2.28 µM (active)

## COc1ccc(/C=N/NC(=O)CSc2nnc(O)nc2O)cc1
Leucine aminopeptidase
  IC50: 7.36 µM (active)
Aminopeptidase N
  IC50: 29 µM (active)

## C[C@@H](NC(=O)/C(C#N)=C/c1ccc(O)c(O)c1)c1ccccc1
Large T antigen
  IC50: 7.28 µM (active)
Cytochrome P450 2C19; read-out: AC50
  AC50: 39.8 µM (inconclusive)
Cytochrome P450 2C9
  AC50: inconclusive

## CCCCCCCC(=O)N/N=C(\C)c1ccc(O)cc1O
[3]
  CC50: 20 µM (active)
[4]
  CC50: 20 µM (active)
[5]
  CC50: 12.6 µM (active)
